In patent US4351948A, “Imidazole hydrazone derivatives” (priority 1980, dated 1982):
Where two headings read alike, the source gives them in different places.

Tests used:
C. albicans = experiment: Recovery of viable candida cells from the kidneys of infected mice (p.o. and i.v. treatment); type: in vivo; details: 25 mg/kg 1 h and 24 h after infection
Method: Mice receive 25×10^4 cells of C. albicans i.v. Treatments (25 mg/kg) administered in PEG/Dextrose 1 h and 24 h after infection. Animals sacrified 48 h after infection and kidneys excised, weighed, homogenized and decimal dilutions spread on glucose-peptone agar.

candida albicans = experiment: Oral treatment: recovery of viable candida albicans from the kidneys of infected mice; type: in vivo
Description: Effect of oral treatment with HC274, HC316, HC390, HC415 and Ketoconazole on the recovery of viable candida albicans from the kidneys of infected mice.

[1] = system: Trichophyton mentagrophytes; experiment: Experimental Trichophyton mentagrophytes infection in guinea pigs; type: in vivo
Description: Effect of oral or topical administration of HC274, HC344, Clotrimazole, and Ketoconazole on experimental Trichophyton mentagrophytes infection in guinea pigs.
*Based on degree of hair loss, erythema, desquamation, Max. = 100
Treatments administered in Carbopol® gel, once daily days 5-10.

Staphylococcus aureus = experiment: Anti-bacterial activity, zone diameter; type: cell-based; details: 50 μg, read-out: Zone diameter given by 50 μg of drug
Description: (§1) The anti-bacterial activity of the compound HC274 according to the present invention was also compared with the activity of known anti-bacterial agents with the following results: […]

Streptococcus pyrogenes = experiment: Anti-bacterial activity, zone diameter; type: cell-based; details: 50 μg; Streptococcus pyrogenes; read-out: Zone diameter given by 50 μg of drug
Description: as §1

pseudomonas aeruginosa = experiment: Anti-bacterial activity, zone diameter; type: cell-based; details: 50 μg; pseudomonas aeruginosa; read-out: Zone diameter given by 50 μg of drug
Description: as §1

Proteus vulgaris = experiment: Anti-bacterial activity, zone diameter; type: cell-based; details: 50 μg, read-out: Zone diameter given by 50 μg of drug
Description: as §1

Escherichia coli = experiment: Anti-bacterial activity, zone diameter; type: cell-based; details: 50 μg, read-out: Zone diameter given by 50 μg of drug
Description: as §1

Nocardia asteroides = experiment: Anti-bacterial activity, zone diameter; type: cell-based; details: 50 μg, read-out: Zone diameter given by 50 μg of drug
Description: as §1

Klebsiella pneumoniac = experiment: Anti-bacterial activity, zone diameter; type: cell-based; details: 50 μg; Klebsiella pneumoniac; read-out: Zone diameter given by 50 μg of drug
Description: as §1

Nocardia brasiliensis = experiment: Anti-bacterial activity, zone diameter; type: cell-based; details: 50 μg, read-out: Zone diameter given by 50 μg of drug
Description: as §1

[2] = system: platelet thromboxane generation; experiment: Inhibition of platelet thromboxane generation (TxB2, collagen-stimulated human platelet rich plasma); type: cell-based; details: Homo sapiens, 10 min, read-out: Activity IC50 (50% inhibition of TxB2 generation)
Method: The compounds used according to the invention as anti-thrombotics were tested by the following method for their ability to inhibit platelet thromboxane generation.
Human venous blood was collected from healthy male donors, who had denied any medication in the previous 14 days. Nine volumes of blood were mixed with one volume of 3.24% trisodium citrate. The citrated blood was centrifuged at 160 g for 10 mins. at 22° C. to obtain platelet rich plasma (PRP). The platelets were then counted on a Coulter counter, and the platelet count was adjusted to 200,000 per μl with plasma.
The PRP was then dispensed as aliquots into micro-Eppendorf tubes, maintained at 37° C. in a dry bath. The compounds dissolved either in saline, ethanol, or DMSO were added in duplicate to the PRP aliquots to produce final concentrations of 0.3, 3 and 30 μg/ml. When ethanol and DMSO were used as the vehicle, triplicate controls containing the same percentage of vehicle as the test compounds were made. The final concentration or organic solvent was never more than 0.1%, which in previous experiments had no effect on TxB2 generation.
Following a 10 min. incubation with test compounds or vehicle, collagen was added to produce a final concentration of 8 μg/ml. The tubes were then whirly-mixed for 15 seconds and replaced in the dry bath for a further 10 minutes, controls received saline instead of collagen. The reaction was then stopped by rapid centrifugation, 15,000 g for 3 mins. The plasma was removed and frozen at -29° C. until assayed.
Briefly, 100 μl aliquots, in tricine buffered saline+0.8% gelatin (pH 8.0) of the following were incubated together for 1 hour at 37° C.: thromboxane Tx B2 (plasma extract, spiked plasma extract or standards 20 to 20,000 pg/ml), ^3 H--TxB2 (approximately 15,000 dpm) and anti-TxB2 antiserum (0.5 μg/100 μl). The free and protein bound ^3 H--TxB2 were separated by ammonium sulphate precipitation followed by centrifugation. 300 μl of the supernatant was added to an aqueous scintillation fluid, and the radioactivity present was counted in a liquid scintillation counter. The binding of ^3 H--TxB2 in the absence of added TxB2 was approximately 55%. The least amount of TxB2 to be detected accurately in the plasma was 0.08 ng/ml. Cross reactivity with other prostaglandins is less than 0.005% except PGD2 which is 1%.
Thus plasma samples were assayed to give a rough approximation of TxB2 content. The plasma was then appropriately diluted and assayed in duplicate to give accurate values.
The amount of TxB2 generated by the collagen was calculated by subtracting mean values obtained for the saline stimulated platelets from the mean values obtained from the collagen stimulated platelets. Then the amount of TxB2 generated in the presence of each concentration of compound was expressed as a % control and dose response curves were then constructed to determine the concentration of compound which produced a 50% inhibition.

[3] = system: Desulfovibrio desulfuricans API-BREWER; experiment: Minimal inhibitory concentration against anaerobic bacteria; details: 24 h

Cl.Clc1ccc(/C(Cn2ccnc2)=N\Nc2ccc(Cl)cc2Cl)cc1 [HC274, (E)-1-(4-chlorophenyl)-2-(1H-imidazol-1-yl)ethanone, 2,4-dichlorophenylhydrazone, hydrochloride]
No. of CFU/g kidney at 48 h (C. albicans; i.v.): 9 × 10^2 CFU/g kidney | No. of CFU/g kidney at 48 h (C. albicans; p.o.): 3.3 × 10^3 CFU/g kidney | Recovery of C.albicans (as percentage of control) (candida albicans; 5 mg/kg): 84.2 percentage of control | Recovery of C.albicans (as percentage of control) (candida albicans; 20 mg/kg): 47.8 percentage of control | Disease rating (degree of hair loss, erythema, desquamation, Max. = 100) ([1]; 40 mg/kg p.o., day 5 after infection): 100 | Disease rating (degree of hair loss, erythema, desquamation, Max. = 100) ([1]; 40 mg/kg p.o., day 10 after infection): 46.9 | Disease rating (degree of hair loss, erythema, desquamation, Max. = 100) ([1]; topical, 1% w/w in Carbopol gel once daily days 5-10, day 10 after infection): 35.4 | Disease rating (degree of hair loss, erythema, desquamation, Max. = 100) ([1]; topical, 1% w/w in Carbopol gel, day 5 after infection): 100 | zone of inhibition at 50 µg/disc (Staphylococcus aureus): 8 mm | zone of inhibition at 50 µg/disc (Streptococcus pyrogenes): 9 mm | zone of inhibition at 50 µg/disc (pseudomonas aeruginosa): 0 mm | zone of inhibition at 50 µg/disc (Proteus vulgaris): 0 mm | zone of inhibition at 50 µg/disc (Escherichia coli): 0 mm | zone of inhibition at 50 µg/disc (Nocardia asteroides): 11 mm | zone of inhibition at 50 µg/disc (Klebsiella pneumoniac): 0 mm | zone of inhibition at 50 µg/disc (Nocardia brasiliensis): 12 mm | IC50 [2]: 15.9 µM | MIC ([3]; read-out: Minimal Inhibitory Concentration, Test 1, 24 hours at 37° C.): 0.75 µg/mL | MIC ([3]; read-out: Minimal Inhibitory Concentration, Test 2, 24 hours at 37° C.): 1 µg/mL | MIC ([3]; read-out: Minimal Inhibitory Concentration, Test 3, 24 hours at 37° C.): 0.5 µg/mL
